Laboratory results published in patent US10919894B2, “Adenine derivatives which are useful in the treatment of allergic diseases or other inflammatory conditions” (GlaxoSmithKline Biologicals SA, priority 2014, dated 2021).

Key:
[1] = tested on: human PBMCs; test: IL-12p70 induction in human PBMCs in combination with CRX601 (TLR4 agonist); format: cell-based; parameters: key to IL-12p70 w/601: * through ****; lowest to highest cytokine induction level; * through ****; lowest to highest cytokine induction level; * through ****; lowest to highest cytokine induction level; * through ****; lowest to highest cytokine induction level; conditions: for IL-12p70 w/601: PBMC/Monocytes, in combination with CRX601; for synergy with CRX601 for IL12-p70: human PBMCs, FIGS. 8A and 8B
Procedure: (§1) An additional 10 μl of media was added to these wells, or another compound preparation if co-stimulation was intended.
(§2) Blood samples from human donors were collected into heparinized 60 cc syringes, and divided into 20 ml aliquots in 50 ml conical culture tubes. The whole blood aliquots were then diluted with 15 ml of PBS, and then underlay with 15 ml HISTOPAQUE™. The samples were centrifuged at 800 g for 30 min with no brake and the buffy coat interface carefully removed. The collected cells were centrifuged at 1500 rpm for 5 minutes and the pellet resuspended in 10 ml of PBS. The cells were pooled and further washed twice in PBS to remove all HISTOPAQUE™ from the samples. After the final wash, the combined cells were brought up in 20 ml complete media (RPMI 1640 supplemented with 10% v/v heat-inactivated Fetal Bovine Serum (FBS), 100 U/ml penicillin G, 100 μg/ml streptomycin, 10 mM L-glutamine), counted using a Countess automated cell counter (Invitrogen, Life Technologies) and diluted to give a final concentration of 2.8×10^6/ml. This cell suspension was added to the culture plate containing the compound preparations (see above), at a volume of 180 μl, resulting in a total well volume of 200 µl.
After 24 hr incubation (37° C., 95% air, 5% CO2), the supernatants were carefully removed and assayed for cytokine/chemokine induction using multiplex kits (FLUOROKINE™ multiplex kits from R&D Systems [bio-techne], Minneapolis, Minn.) and human IFNa VERIKINE™ ELISA kit (Pestka Biomedical Laboratories, Inc., Piscataway, N.J.).
As previously observed with other oxoadenines (see WO2010/018134), synergy with AGP CRX601 for IL12-p70 was relatively low compared to imidazoquinoline compound CRX642 (see WO2010/048520; PCT/US2009/061867; U.S. Pat. No. 8,624,029) in combination with CRX601.

[2] = target: T1, hTLR7 (Homo sapiens, UniProt Q9NYK1); test: NF-κB SEAP reporter gene assay in HEK293 cells stably transfected with hTLR7; format: cell-based; conditions: for EC50: HEK 293, 24 h stimulation, NF-κB SEAP, read-out: TLR7 ED50; for higher TLR7 potency in relation to oxoadenine 3b: HEK293-hTLR7, FIG. 4A
T1 construct: host or cells: HEK293 cells stably transfected with hTLR7 and NF-κB SEAP reporter
T1 sequence (Q9NYK1 27-1049): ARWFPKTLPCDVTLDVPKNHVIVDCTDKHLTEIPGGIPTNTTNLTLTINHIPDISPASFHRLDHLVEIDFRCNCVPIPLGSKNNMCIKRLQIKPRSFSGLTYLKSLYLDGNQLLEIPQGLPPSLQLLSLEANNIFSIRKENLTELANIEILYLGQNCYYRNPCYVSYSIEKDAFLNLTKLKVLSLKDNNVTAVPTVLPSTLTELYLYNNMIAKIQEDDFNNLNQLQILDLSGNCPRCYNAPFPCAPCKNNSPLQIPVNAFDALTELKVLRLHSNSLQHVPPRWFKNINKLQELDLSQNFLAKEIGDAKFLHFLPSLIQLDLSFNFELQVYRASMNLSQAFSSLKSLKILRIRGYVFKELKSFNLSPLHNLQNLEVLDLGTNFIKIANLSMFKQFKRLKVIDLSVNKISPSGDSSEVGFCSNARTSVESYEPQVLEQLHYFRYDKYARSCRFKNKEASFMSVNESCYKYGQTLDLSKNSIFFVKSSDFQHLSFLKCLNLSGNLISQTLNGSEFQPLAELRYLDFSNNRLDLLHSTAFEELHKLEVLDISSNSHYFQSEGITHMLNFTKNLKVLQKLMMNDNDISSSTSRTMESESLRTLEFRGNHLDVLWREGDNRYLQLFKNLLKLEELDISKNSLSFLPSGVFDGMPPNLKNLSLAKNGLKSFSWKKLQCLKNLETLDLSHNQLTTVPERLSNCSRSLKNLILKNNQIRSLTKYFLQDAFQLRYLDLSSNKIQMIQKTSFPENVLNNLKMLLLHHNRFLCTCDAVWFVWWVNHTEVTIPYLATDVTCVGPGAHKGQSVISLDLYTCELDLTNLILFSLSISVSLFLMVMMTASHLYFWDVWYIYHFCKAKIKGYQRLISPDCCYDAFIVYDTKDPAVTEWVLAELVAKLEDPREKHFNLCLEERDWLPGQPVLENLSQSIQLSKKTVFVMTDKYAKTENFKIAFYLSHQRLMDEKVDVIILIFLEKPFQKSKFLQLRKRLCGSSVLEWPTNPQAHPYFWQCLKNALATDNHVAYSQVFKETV
Procedure: The human (h) TLR7/8 activity of oxoadenines 3a-g was assessed by a reporter gene assay using HEK293 cells stably transfected with either hTLR7 or hTLR8, and with the NF-κB SEAP (secreted embryonic alkaline phosphatase) reporter.
HEK293 cells expressing human TLR7 or TLR8, and NF-κB responsive SEAP reporter gene, were obtained from InvivoGen (San Diego, Calif.). These cells were maintained in culture media of Dulbecco's Modified Eagle Medium (DMEM)
(Invitrogen, Grand Island, N.Y.), 10% Fetal Bovine Serum (FBS) (Sigma, St. Louis, Mo.) and selection antibiotics (Invitrogen and InvivoGen). The stably transfected HEK293 cells were plated in 96-well flat bottom culture plates at 1^E5/well and stimulated for 24 h with a dose range of aqueous formulations of compounds starting at 200 μM, serially diluted to 0.012 μM with 2-fold dilutions (unless formulation conditions warranted lower starting concentrations). Culture supernatants were harvested and assayed for NFKB activation using the colorimetric SEAP detection kit QU ANTI-BLUE (a trademark of InvivoGen).
The assay measured NFKB mediated SEAP production following TLR7 or TLR8 specific activation.
It should be noted that the HEK assay is not optimal for evaluating TLR7 since TLR7 signals via both the NFKB (leading to induction of inflammatory cytokines) and IRF7 pathways (leading to IFN induction) and the HEK system only measures the NFKB side of TLR7 signaling. Oxoadenine 3a was not active on hTLR7 or hTLR8 but the other oxoadenines 3b-g were all active.

[3] = tested on: hPBMCs; test: IFNα induction in hPBMCs; format: cell-based; conditions: human PBMCs, FIG. 6
Procedure: (§3) Compounds were dissolved in 2% glycerol in water to working concentrations starting at 10 μM, serially diluted to 0.00013 μM with 5-fold dilutions. This compound preparation was added to 96-well flat bottom plates at a volume of 10 μl.
as §1
as §2, with “This cell suspension was added to the culture plate containing the compound preparations (see above), at a volume of 180 μl, resulting in a total well volume of 200 µl.” left out
The induction of IFNα from hPBMCs upon stimulation with oxoadenines 3a-g was also evaluated. […]

[4] = tested on: hPBMCs; test: TNFα induction in hPBMCs; format: cell-based, human; conditions: 24 hours stimulation
Procedure: as §3, §1
as §2, with “The cells were pooled and further washed twice in PBS to remove all HISTOPAQUE™ from the samples.” left out, “This cell suspension was added to the culture plate containing the compound preparations (see above), at a volume of 180 μl, resulting in a total well volume of 200 µl.” left out
The induction of cytokines in human peripheral blood mononuclear cells (hPBMCs) after 24 hours stimulation with oxoadenines 3e-g was next evaluated using cytokine ELISA and intracellular cytokine staining (ICS). […]

[5] = tested on: PBMC/Monocytes; test: Inflammatory cytokine induction in PBMC/Monocytes; format: cell-based, human; parameters: key: * through ****; lowest to highest cytokine induction level; * through ****; lowest to highest cytokine induction level; * through ****; lowest to highest cytokine induction level; * through ****; lowest to highest cytokine induction level
Procedure: as §3
as §2, with “µl. […]” for “µl.”

[6] = tested on: pDC and mDC in hPBMCs; test: Activation induced apoptosis by Annexin-V staining in pDC and mDC of stimulated hPBMCs; format: cell-based, human; conditions: hPBMCs stimulated with various doses
From the text: This observed cell type specific apoptosis correlated with the dose-dependent IFNα and TNFα induction curves.

EC50 [2] [nM] | higher TLR7 potency in relation to oxoadenine 3b [2] [fold] | SMILES | IL-12p70 w/601 [1] | synergy with CRX601 for IL12-p70 [1] | dose at which IFN-alpha is induced [3] [nM] | TNFα induction in hPBMCs (in words) [4] | Infl. Cytok. [5] | Annexin-V staining in mDC ([6]; mDC) | Annexin-V staining in pDC ([6]; pDC)
6 | 100 | CCC[C@H](C)Oc1nc(N)c2nc(O)n(CCCCCC3CCNCC3)c2n1 [Compound 3x] | ** | demonstrated synergy with CRX601 throughout a wide dose range | ~1 | high potency |  |  | 
26 | 50 | CCCCOc1nc(N)c2[nH]c(=O)n(CCCCCC3CCNCC3)c2n1 [Compound 3f] | ** | demonstrated synergy with CRX601 throughout a wide dose range | ~1 | high potency | *** | not in mDC | dose dependent increase in Annexin-V staining
